The text below walks through data of paper PMC11111895, “Identification of a dCache-type chemoreceptor in Campylobacter jejuni that specifically mediates chemotaxis towards methyl pyruvate” (Frontiers in Microbiology, 2024).

The target in one assay is Tlp11-LBD N268A. The assay can be described thus: MST of Tlp11-LBD mutant N268A. Type of assay: binding, C. jejuni ATCC 33560. Conditions: max ligand 2.5 mM. How it is done:
(§1) The His-tag dye (MO-L018 RED-tris-NTA, NanoTemper, Germany) was adjusted to a final concentration of 25 nM and used to label the purified protein with a His-tag. The compound was diluted to a series of concentrations in phosphate-buffered saline ([Duan et al., 2023]) with 0.05% Tween 20 (PBS-T) buffer and mixed in a ratio of 1:1 with protein. The mixtures were loaded into capillaries (Monolith™ Series capillaries, NanoTemper) by means of capillary action. Thermophoresis was measured using a Monolith™ NT.115 (NanoTemper) instrument, with 40% excitation and 40% MST power configuration. The time-traces of changes in fluorescence, which reflected the thermophoretic movement of labeled protein affected by different concentrations of compound were recorded, and the dose–response curves were fitted with the ‘temperature jump and thermophoresis’ mode. Data analysis was performed using MO. Affinity Analysis version 2.3 (NanoTemper) and Prism version 8.0.2 (GraphPad Software, United States).
(§2) In order to confirm the contribution of L264, N268, I276, Y291, V318, and T320 to the binding to methyl pyruvate, we generated Tlp11-LBD proteins with an alanine point mutation at individual residues, to obtain the mutant proteins L264A, N268A, I276A, Y291A, V318A, and T320A, and then analyzed the binding affinities of methyl pyruvate to these mutants using MST. […]

Assay [1] relates to full-length PhoQ or an empty vector. Nature of the assay: GFP reporter assay, control cells. Format: cell-based, E. coli MG1655/ΔPhoQ. The note with it: 40 min. The method, then: (§3) The reporter plasmid pUA66-PmgtLA-GFP and the plasmid encoding the hybrid kinase were together transformed into E. coli MG1655/ΔPhoQ strain. E. coli cells containing the reporter and Tlp11-PhoQ chimera were incubated in Medium A, at 37°C, with shaking (200 rpm), until an OD600 of 0.4 was attained, following which different concentrations of methyl pyruvate were added to the medium and the cells were incubated for 40 min. The fluorescence intensity of the cells was monitored using a plate reader (Varioskan™ LUX, Life Technologies) equipped with a 488 nm laser and a 528/12 bandpass filter. The acquired data were analyzed using Prism 8.0.2.
(§4) To construct the signal input module, we fused the Tlp11-LBD with the PhoQ cytoplasmic region, to design the Tlp11-PhoQ hybrid kinases (Supplementary Figure S6), Tlp11[1-337]-PhoQ[200-486] (Tlp337PhoQ200), Tlp11[1-339]-PhoQ[200-486] (Tlp339PhoQ200), Tlp11[1-339]-PhoQ[201-486] (Tlp339PhoQ201), Tlp11[1-340]-PhoQ[202-486] (Tlp340PhoQ202), Tlp11[1-340]-PhoQ[200-486] (Tlp340PhoQ200), Tlp11[1-341]-PhoQ[202-486] (Tlp341PhoQ202), Tlp11[1-342]-PhoQ[[…]] (Tlp342PhoQ202), Tlp11[1-343]-PhoQ[202-486] (Tlp343PhoQ202), which connected Tlp11 and PhoQ in TM2 (Supplementary Figure S7C). The activity of each chimera in sensing methyl pyruvate was determined by measuring the fluorescence intensity of GFP in the E. coli MG1655/ΔPhoQ strain.
(Reporter assays use an easily measured gene product as a stand-in for the process of interest.)

The test system of assay [2] is C. jejuni 11168ΩTlp11/ΔCheY. Format: cell-based, Campylobacter jejuni. Conditions: 11168ΩTlp11/ΔCheY; microfluidic device.
The target of assay [3] is Tlp11-LBD homologue (WP_257425542.1, residues 31-331). The assay can be described thus: MST of Tlp11-LBD homologue. Type of assay: binding, Campylobacter upsaliensis. The note with it: C. upsaliensis LBD. How it is done:
as §1
(§5) To evaluate whether these potential Tlp11-LBD homologues could bind to methyl pyruvate, we conducted a structural analysis of the LBDs of six chemoreceptors from C. coli, H. equorum, H. himalayensis, H. mesocricetorum, H. ganmani, and C. upsaliensis using Alphafold 2. […]

A further assay addresses Tlp11-LBD I276A. Nature of the assay: MST of Tlp11-LBD mutant I276A. Format: binding, C. jejuni ATCC 33560. Conditions: max ligand 2.5 mM. How it is done: as §1, §2
The subject of assay [4] is Tlp11[1-343]-PhoQ[202-486] (Tlp343PhoQ202). Nature of the assay: Hybrid kinase Tlp11-PhoQ GFP reporter assay. Format: cell-based, E. coli MG1655/ΔPhoQ. The note with it: stimulation for 40 min. The method, then: as §3, §4
A further assay has as its target Tlp11-LBD Y291A. The assay can be described thus: MST of Tlp11-LBD mutant Y291A. Type of assay: binding, C. jejuni ATCC 33560. Conditions: max ligand 2.5 mM. How it is done:
as §1, §2

A further assay addresses Tlp11-LBD. The assay can be described thus: Microscale thermophoresis (MST) of Tlp11-LBD. Format: binding, C. jejuni ATCC 33560. How it is done: as §1
MST quantifies interaction affinities by detecting the direct movement of fluorescent molecules along temperature gradients in capillaries. Ligand binding changes the thermophoretic movement of proteins, which can be used to derive Kds, by sequentially scanning capillaries with different ligand concentrations. MST has been applied to the study of weak binding systems and validated to provide reliable results ([Linke et al., 2016]; [Gao et al., 2021]). […] We also tested the binding abilities of methyl pyruvate analogues to Tlp11-LBD using MST (Supplementary Table S3).
(In general: In MST a laser heats a spot of the sample, and binding alters the fluorescence response.)

In assay [5] the target is Tlp11-LBD homologue (WP_201459806.1, residues 32-332). Nature of the assay: MST of Tlp11-LBD homologue. Type of assay: binding, Campylobacter coli. The note with it: C. coli LBD. How it is done:
as §1, §5

The subject of assay [6] is C. jejuni WT NCTC 11168 cells. Type of assay: cell-based, Campylobacter jejuni. The note with it: WT NCTC 11168 cells; microfluidic device, 30 min.

SMILES strings stand for the structures. Read-outs that look alike come from different tables or passages of the source.

The term Kd denotes a measure of binding affinity in units of concentration. Regarding `COC(=O)C(C)=O` [methyl pyruvate, Methyl pyruvate], the “Kd (binding curve fit)” value at Tlp11-LBD N268A, on Tlp11-LBD I276A and on Tlp11-LBD Y291A was “unable to obtain fitted Kd values” in each case. Further, the “response (GFP fluorescence intensity) of control cells” value in assay [1] is reported as “almost no response”. In addition, the chemotactic response entry in [2] is “no chemotaxis”; in assay [6] it was “failed to show any chemotaxis”. Further, the equilibrium dissociation constant (Kd) in assay [3] is 1900 ± 500 µM; on Tlp11-LBD (250 nM protein, methyl pyruvate at pH 7.0, read-out: Kd of Tlp11-LBD binding), 688 ± 140 µM; at Tlp11-LBD (Tlp11-LBD saturated with 5 mM quinoline, read-out: Kd of Tlp11-LBD interacting with methyl pyruvate), 3900 ± 1100 µM; on Tlp11-LBD (Tlp11-LBD saturated with 5 mM toluene, read-out: Kd of Tlp11-LBD interacting with methyl pyruvate), 18000 ± 3000 µM; in assay [5] it was 1400 ± 500 µM. Moreover, the “response (GFP fluorescence intensity) of Tlp343PhoQ202” value in assay [4] is listed as “significant concentration-dependence”.
